We go through four molecules from the NIST ThermoML archive (doi:10.1016/j.jct.2012.02.023).

For this data set the following is noted: Liquid; for speed of sound / mass density: 101.33 kPa; for speed of sound: Sing-around technique in a fixed-path interferometer; for mass density: Vibrating tube method; for vapor or sublimation pressure: Closed cell (Static) method.

The structures appear in SMILES notation. Numbers after ± are expanded uncertainties.

Broadly, the speed of sound is the propagation velocity of pressure waves in the medium. As a reminder, the mass density is mass per unit of volume. As to `CCCC[n+]1cccc(C)c1.F[B-](F)(F)F` [1-butyl-3-methylpyridinium tetrafluoroborate], the speed of sound is recorded as 1598.5 ± 1.6 m/s (293.15 K), 1573.8 ± 1.6 m/s (303.15 K), 1550.1 ± 1.6 m/s (313.15 K) and 1527 ± 1.6 m/s (323.15 K). The mass density reads like this: (293.15 K) 1185.65 ± 0.38 kg/m3; (303.15 K) 1178.86 ± 0.38 kg/m3; (313.15 K) 1172.11 ± 0.37 kg/m3; (323.15 K) 1165.37 ± 0.37 kg/m3.
For `CCCC[n+]1ccc(C)cc1.F[B-](F)(F)F` [1-butyl-4-methylpyridinium tetrafluoroborate], the speed of sound is given as 1611.8 ± 1.6 m/s (293.15 K), 1586.7 ± 1.6 m/s (303.15 K), 1562.8 ± 1.6 m/s (313.15 K) and 1539.3 ± 1.6 m/s (323.15 K). The mass density runs as follows: (293.15 K) 1185.92 ± 0.38 kg/m3; (303.15 K) 1179.12 ± 0.38 kg/m3; (313.15 K) 1172.12 ± 0.37 kg/m3; (323.15 K) 1165.52 ± 0.37 kg/m3.
As usually defined, the vapor or sublimation pressure is the equilibrium pressure above the liquid or solid. `CCO` [ethanol]: the speed of sound is, setting by setting: (293.15 K) 1160.1 ± 1.2 m/s; (303.15 K) 1127.2 ± 1.2 m/s; (313.15 K) 1093.6 ± 1.2 m/s; (323.15 K) 1060.4 ± 1.2 m/s. Also, the mass density runs as follows: (293.15 K) 789.481 ± 0.15 kg/m3; (303.15 K) 781.302 ± 0.15 kg/m3; (313.15 K) 772.569 ± 0.15 kg/m3; (323.15 K) 763.647 ± 0.16 kg/m3. In addition, the “vapor or sublimation pressure” value by setting is: (303.15 K) 10.47 ± 0.045 kPa; (323.15 K) 29.57 ± 0.067 kPa.
Turning to `CO` [methanol], the speed of sound amounted to 1118.8 ± 1.2 m/s (293.15 K), 1086 ± 1.1 m/s (303.15 K), 1053.5 ± 1.1 m/s (313.15 K) and 1021.5 ± 1.1 m/s (323.15 K). In addition, the mass density is recorded as 791.243 ± 0.12 kg/m3 (293.15 K), 781.813 ± 0.13 kg/m3 (303.15 K), 772.287 ± 0.13 kg/m3 (313.15 K) and 762.628 ± 0.14 kg/m3 (323.15 K). Besides, the “vapor or sublimation pressure” value is reported as 21.93 ± 0.08 kPa (303.15 K) and 55.78 ± 0.12 kPa (323.15 K).
